The record followed here is patent US9261498B2, “Biomarker for sensitivity to mTOR inhibitor therapy in kidney cancer” (The Regents of the University of California, priority 2005, dated 2016).

For test [1], the system named is HIF-1α mRNA. Description: Real-time quantitative RT-PCR of HIF-1α transcript. The following applies: 10 nM CCI-779. It counts as cell-based, human. As to the method:
Total RNA was extracted from SN12C-CSCG, ACHN-CSCG, SN12C-CSCG-VHLshRNA and ACHN-CSCG-VHL shRNA cell lines treated with vehicle or 10 nM of CCI-779 using the RNeasy kit (Qiagen). Two μg of total RNA was used as a template for the production of c DNA through reverse transcription. The reactions were assembled as in a 25 μl final volume as follows: 1 μM primers (random hexamers; Invitrogen), 10 mM DTT, 1X Superscript II buffer, […] of dATP, dCTP, dGTP and dTTP, 10U RNasin, 200 units of Superscript II reverse transcriptase. Each RNA template, primer and nuclease free water were combined and incubated for 10 minutes, then placed in an ice bath. The remaining reaction components were added and each reaction was incubated at 25° C. for 10 minutes, then 42° C. for 60 minutes and finally 70° C. for 15 minutes. Negative control reactions (which contained no RT enzyme) were also assembled. Real-time PCR was performed on an ABI Prism 7700 sequence detector (Applied Biosystems). Primers and specific probes for HIF-1α and 18S were obtained from Assays-on Demand Gene Expression products (Applied Biosystems). […] Threshold cycles (Ct's) for the RT samples were recorded. […] Tracer uptake by the tumors was expressed as the ratio between the maximum intratumoral and mean hepatic counts/pixel. All quantitative values are reported as mean±standard error of the mean (SEM).

The subject of test [2] is VHL knockdown xenograft tumors. Description: FDG microPET imaging of xenograft tumors. The format is in vivo, SCID mice. The following applies: within 24 hours, CCI-779 0.1 mg/kg i.p. every 12 hours; uptake normalized to liver. The protocol:
FIGS. 5A-5B. […] (a) Representative images of two SCID-mice bearing isogenic ACHN-xenograft tumors on the right flank before and after two doses of CCI-799 (0.1 mg/kg). Arrows indicate the location of subcutaneous xenograft tumors (innate increased signal intensity due to abdominal brown fat and glial tissue are observed in the thorax and skull of the mice). (b) Quantification of FDG uptake (+/−SEM) in SCID-mice bearing either ACHN-vector or ACHN-CSCG VHL shRNA subcutaneous xenografts. FDG-tumor uptake was normalized to hepatic FDG-uptake for each mouse. n=3 per group and experiments were repeated twice with identical results.
Total RNA was extracted from SN12C-CSCG, ACHN-CSCG, SN12C-CSCG-VHLshRNA and ACHN-CSCG-VHL shRNA cell lines treated with vehicle or 10 nM of CCI-779 using the RNeasy kit (Qiagen). Two μg of total RNA was used as a template for the production of c DNA through reverse transcription. […] Threshold cycles (Ct's) for the RT samples were recorded. […] Tracer uptake by the tumors was expressed as the ratio between the maximum intratumoral and mean hepatic counts/pixel. All quantitative values are reported as mean±standard error of the mean (SEM).

Molecules are shown by their SMILES. “Also recorded” adds a separate entry of the source.

Take `CO[C@H]1C[C@@H]2CC[C@@H](C)[C@@](O)(O2)C(=O)C(=O)N2CCCC[C@H]2C(=O)O[C@H]([C@H](C)C[C@@H]2CC[C@@H](OC(=O)C(C)(CO)CO)[C@H](OC)C2)CC(=O)[C@H](C)/C=C(\C)[C@@H](O)[C@@H](OC)C(=O)[C@H](C)C[C@H](C)/C=C/C=C/C=C/1C` [CCI-779]: the “HIF-1α transcript (mRNA) levels” value in test [1] was “no effect; also recorded: without exerting any effect on transcription; also recorded: did not see any changes”. In test [2], the “FDG uptake of VHL knockdown tumors” value is given as “reduced to baseline”.
